Row | melting point | SMILES
1 | 193 °C | CCN(CC)S(=O)(=O)c1ccc(C(=O)O)cc1
2 | 161 °C | O=C(Nc1ccccc1)C1Cc2ccccc21 (stereo not drawn)
3 | 207 °C | Cc1c(Cl)cccc1Nc1ccccc1C(=O)O
4 | 214 to 215 °C | COC(=O)c1ccc2c(C=O)cn(C(=O)OC(C)(C)C)c2c1
5 | 224 to 226 °C | Cc1nn(Cc2cccc(C(=O)O)c2)c(C)c1Br
6 | 178 °C | CC(C(=O)O)c1ccc(C2CCCC(=NO)C2)cc1 (stereo not drawn)
7 | 172 °C | NNc1nncc2ccccc12
8 | 55 °C | CCO[Si](CCCNC(=O)c1ccc([N+](=O)[O-])cc1)(OCC)OCC
9 | 87 to 90 °C | CC(=O)c1csc2ccc(Br)cc12
10 | 175 °C | O=C(O)c1ccc([N+](=O)[O-])c(F)c1
11 | 283 to 285 °C | COC(=O)c1c(SC)nc(-c2ccccc2)[nH]c1=O
12 | 184 to 185 °C | O=C(O)c1ccc(CN2CCCC2)cc1
13 | 297 °C | CC(=O)C1(O)CCC2C3CC(C)C4=CC(=O)C=CC4(C)C3(F)C(O)CC21C (stereo not drawn)
14 | 95 to 97 °C | O=C(O)CCc1c(Cl)cccc1Cl
15 | 117 °C | Cc1ccc(C(=O)NN)cc1
16 | 215 °C | NC(=O)NC(=O)Cc1ccccc1
17 | 134 °C | Cc1c(N(C)C)c(=O)n(-c2ccccc2)n1C
18 | 92.5 to 95.5 °C | CCOC(=O)c1c(-c2ccc(F)cc2)csc1N
19 | 92 to 94 °C | O=C(CCl)Nc1ccccc1C(F)(F)F
20 | 177 to 179 °C | O=C(O)c1cccc(-c2ccsc2)c1
21 | 118 °C | Cc1ccc(C2(O)CCN(CCCC(=O)c3ccc(F)cc3)CC2)cc1
22 | 251 to 256 °C | N[C@@H](CCCCNC(=O)c1ccccc1)C(=O)O
23 | 63 to 64 °C | CC(C)Cc1ccc(C(=O)C(C)Br)cc1 (stereo not drawn)
24 | 241 to 243 °C | O=C(NC(NC(=O)c1ccccc1)c1ccccc1OCc1ccccc1Cl)c1ccccc1

Row | melting point | SMILES
25 | 58 °C | CN(C)C(=O)COC1CCN(C(=O)OC(C)(C)C)CC1
26 | 92 °C | CC(=O)NC(Cc1ccc2c(c1)OCO2)C(=O)O (stereo not drawn)
27 | 59.5 °C | Cc1ccc(C(=O)c2ccccc2)cc1
28 | 300 °C | CC(=O)Nc1c(I)c(NC(C)=O)c(I)c(C(=O)O)c1I
29 | 86 °C | CC(=O)c1c(F)ccc(F)c1C(=O)O
30 | 88 °C | Cc1ccc(/C=C2/C=C(CC(C)C)OC2=O)o1
31 | 200 °C | O=C(O)c1cc2cc([N+](=O)[O-])ccc2oc1=O
32 | 82 to 83 °C | COC(=O)c1cc(Cl)nc(Cl)c1
33 | 150 to 151 °C | O=C(O)C1CC(=O)N(Cc2ccc(F)cc2)C1 (stereo not drawn)
34 | 28 °C | COC(=O)c1c(Cl)cccc1Cl
35 | 114 °C | Cc1cc(C=O)cc(C)c1O
36 | 43 to 45 °C | O=Cc1ccccc1OCCN1CCOCC1
37 | 186 °C | O=[N+]([O-])c1ccc(/C=C/c2ccccc2O)c([N+](=O)[O-])c1
38 | 80 °C | CC(=Cc1ccccc1)C(=O)O
39 | 180 to 183 °C | CC1CC(=O)Nc2ccccc2N1 (stereo not drawn)
40 | 126 °C | Cc1cc(Sc2cc(C)c(O)c(C(C)(C)C)c2)cc(C(C)(C)C)c1O
41 | 164 to 165 °C | COc1ccc(C2c3cc(OC)c(OC)cc3CCN2C(C)=O)cc1OC (stereo not drawn)
42 | 140 °C | COc1cc(/C=N/c2ccccc2)ccc1O
43 | 27 °C | Cc1ccc(O)c(Cl)c1C
44 | 225 °C | O=C1Cc2cc(C(=O)CBr)ccc2N1
45 | 118 °C | O=C(c1ccccc1)c1cc(C(=O)c2ccccc2)cc(C(=O)c2ccccc2)c1
46 | 77 °C | CC(=O)Oc1nn(-c2ccc(Br)cc2)cc1Br
47 | 17 to 18 °C | CCOC(=O)c1c(C)cc(=O)oc1C
48 | 233 to 235 °C | N[C@@H](Cc1ccc(O)c([N+](=O)[O-])c1)C(=O)O

The next lines start with the compound.

Row | SMILES | melting point
49 | O=C1CCCc2occc21 | 60.5 to 61.5 °C
50 | Nc1ccc(Br)c([N+](=O)[O-])c1 | 128 to 132 °C
51 | Cc1ccc2c(c1Cl)C(=O)c1ccccc1C2=O | 170 °C
52 | O=C(CF)c1ccccc1 | 29 °C
53 | CCCCc1c(C)nc(N(C)C)nc1O | 102 °C
54 | CC1=CCC(C(C)C)=CC1 | -10 °C
55 | Oc1ccccc1C=NC1CCCCC1N=Cc1ccccc1O (stereo not drawn) | 118 °C
56 | CCCCCCCCCCCCCCCC=O | 35 °C
57 | CCc1ccccc1-n1c(C)nc2ccccc2c1=O | 81 °C
58 | CC(C)CC#N | -101 °C
59 | N[C@@H]1C=C[C@H](C(=O)O)C1 | 180 °C
60 | O=[N+]([O-])c1cc(F)c(F)cc1F | -11 °C
61 | O=[N+]([O-])c1ccc(-c2nnc3n2NC(c2ccco2)S3)cc1 (stereo not drawn) | 210 °C
62 | O=[N+]([O-])c1ccc(Sc2ccccc2)cc1 | 56 °C
63 | O=c1cc[nH]c(=O)[nH]1 | 338 °C
64 | Cc1ccccc1Oc1cccnn1 | 78 °C
65 | COc1ccc(OCc2ccccc2)cc1 | 71 to 73 °C
66 | Nc1csc(C(F)(F)F)c1-c1ccccc1 | 65 to 66 °C
67 | C[C@@H]1CNCCN1 | 86 to 91 °C
68 | Nc1cc(Cl)nc(N)n1 | 201 °C
69 | C=C1C(=O)C23C4CC5C(C)(C)CCC(OC(C)=O)C5(C)C2C(OC(C)=O)CC1(OC(C)=O)C3OC(C)(C)O4 (stereo not drawn) | 221 °C
70 | Cc1c(C)c(CBr)c(CBr)c(CBr)c1CBr | 205 °C

Row | SMILES | melting point
71 | C1=CC2OC1c1ccccc12 | 53 to 58 °C
72 | CCc1cccc([N+](=O)[O-])c1 | -37.9 °C
73 | COc1ccc2c3c1OC1C(O)CC=C4C(C2)N(C)CCC431 (stereo not drawn) | 128 °C
74 | OC(CS)C(O)CS (stereo not drawn) | 83 °C
75 | CC(=O)OC1C(O)C2=C(C(=O)C(OC(C)=O)C3(CC3C)C2=O)C2(C)CCC(OC(C)=O)C(C)(C)C12 (stereo not drawn) | 116 to 117 °C
76 | CC1(C)CC(N)CC(C)(C)N1 | 17 °C
77 | CCCCCCCCCCCCCCCCCCCCC(=O)O | 74 to 76 °C
78 | CNC(N)=O | 103 °C
79 | OC(c1ccc(-c2ccc(C(O)(C(F)(F)F)C(F)(F)F)cc2)cc1)(C(F)(F)F)C(F)(F)F | 125 to 126 °C
80 | CC(=O)c1cc(Cl)sc1Cl | 38 °C
81 | O[C@@H](c1ccccc1)[C@@H](O)c1ccccc1 | 149 °C
82 | FC(F)(F)C(F)(F)C(F)(F)C(F)(C(F)(F)F)C(F)(F)F | -119 °C
83 | O=C1c2ccccc2C(=O)c2c(Nc3cccc4c3C(=O)c3ccccc3C4=O)cccc21 | 300 °C
84 | C=Cc1c(SC)sc(C(=O)O)c1C | 172 to 174 °C
85 | CC(=O)NC(C)C(=O)O (racemic) | 137 °C
86 | CCCCCCCC[C@@H](O)CO | 60 to 62 °C
87 | Cc1cccc2ccoc12 | 109 °C
88 | OCc1cccc(Oc2ccccn2)c1 | 57 to 59 °C
89 | Nc1nnc(-c2ccccc2)c(Nc2ccc(Cl)cc2Cl)n1 | 222 to 223 °C
90 | N=C(N)NC(N)=O | 105 °C
91 | C=CC(=O)NC(O)C(O)NC(=O)C=C (stereo not drawn) | 142 °C
92 | CSC(SC)SC | 16 °C

Row | SMILES | melting point
93 | CCOC(=O)C1CCN(c2nc(Cl)nc(Cl)n2)CC1 | 150 °C
94 | COc1cc(Br)cc(Br)c1 | 41.5 °C
95 | CCCCCC(N)P(=O)(O)O (stereo not drawn) | 265 to 268 °C
96 | CC(C)=CCCC(C)=CC=CC(C)=CC=CC(C)=CC=CC=C(C)C=CC=C(C)C=CC=C(C)CCCC(C)(C)O | 171 °C
97 | OC1Cc2ccccc21 (stereo not drawn) | 58 to 59 °C
98 | O=c1nn[nH]c2ccccc12 | 223 °C
99 | Ic1cn(C(c2ccccc2)(c2ccccc2)c2ccccc2)cn1 | 224 to 225 °C
100 | Cc1cccc(Cl)c1I | 27 °C
101 | CC[C@H](N)P(=O)(O)O | 260 °C
102 | NC(=O)C12CCN(CC1)CC2 | 235 to 237 °C
103 | Cc1ccc(OC2CCC3C4CCC5CC(=O)CCC5(C)C4CCC23C)cc1 (stereo not drawn) | 148 to 153 °C
104 | O=CN(C=O)C(N(C=O)C=O)N(C=O)C=O | 145 °C
105 | NS(=O)(=O)c1ccc(SCCCO)cc1 | 117 °C
106 | S=C(NCC(c1ccccc1)c1ccccc1)Nc1ccccc1 | 171 °C
107 | Nc1nc(-c2ccc(F)c(F)c2)cs1 | 116 to 117 °C
108 | O=C(ON1C(=O)CCC1=O)ON1C(=O)CCC1=O | 190 °C
109 | CCCCCCCCCC[C@H](O)CO | 69 to 72 °C
110 | C[Si]1(C)O[Si](C)(C)O[Si](C)(C)O[Si](C)(C)O[Si](C)(C)O1 | -38 °C
111 | Cc1nc(N(C)C)nc(OC(=O)N(C)C)c1C | 91.6 °C
112 | c1ccc2cc3c(cc2c1)CC1OC1C3 (stereo not drawn) | 159 to 160 °C
113 | Nc1nccc(-c2ccncc2)n1 | 81.3 °C
114 | O=CC1CC=CCC1 (stereo not drawn) | 2 °C

Row | SMILES | melting point
115 | O=[N+]([O-])c1ccc2c3c(cccc13)-c1ccccc1-2 | 153 to 157 °C
116 | Nc1nccnc1C(=O)O | 201 to 205 °C
117 | OCC1C2C=CC(C2)C1CO (stereo not drawn) | 85 to 85.5 °C
118 | FC(F)(F)c1cc(N=C=S)ccc1Cl | 34 to 36 °C
119 | O=C1Nc2ccccc2C12OCCO2 | 125 to 128 °C
120 | C=CC1=C(C=NNc2ccc([N+](=O)[O-])cc2[N+](=O)[O-])CCCC1 | 152 to 153 °C
121 | FC(F)(F)C(F)(F)C(F)(F)N(C(F)(F)C(F)(F)C(F)(F)F)C(F)(F)C(F)(F)C(F)(F)F | -52 °C
122 | CC12CC1(C)C(=O)N(c1cc(Cl)cc(Cl)c1)C2=O (stereo not drawn) | 166 °C
123 | CCCCCCCCC(C(=O)O)C(=O)O | 116 °C
124 | C12C3C4C1C1C2C3C41 (stereo not drawn) | 126 °C
125 | N#Cc1ccc(N)c(N)c1 | 144 to 145 °C
126 | C=Cc1scnc1C | -15 °C
127 | CC(CCC(=O)O)C1CCC2C3C(=O)C(Br)C4CC(C(=O)O)CCC4(C)C3CC(C(=O)O)C12C (stereo not drawn) | 229 to 230 °C
128 | CC1(C)C2CCC1(C)C(O)C2 (stereo not drawn) | 214 °C
129 | FC(F)(F)C(Cl)=C(Cl)C(F)(F)F | -67.3 °C
130 | COc1cc2c(cc1O)CCNC2C (stereo not drawn) | 222 °C
131 | NC(=O)C(Br)CBr (stereo not drawn) | 133 °C
132 | NN1C(=O)CSC1=S | 102 °C
133 | Nc1ncc([N+](=O)[O-])cn1 | 237 °C
